Patent publication US7892764B2, “System for seizure suppression” (priority 2006, dated 2011)

Key:
[1] = tested on: mouse hippocampal slices; test: Low Mg2+-induced epileptiform bursting activity (evoked and spontaneous) in hippocampal slices; type: cell-based; details: Mg2+-free aCSF; for frequency of spontaneous clustered bursts / frequency of spontaneous clustered bursts relative to control: bath perfusion
Method: Limbic seizures (Avoli et al., 2002) are modeled by removing Mg^2+ from artificial cerebral spinal fluid (aCSF) in slices of hippocampal-entorhinal cortex, which triggers interictal-like bursting activity, or spontaneous ictal-like events (Wong et al., 2001; Anderson et al., 1986). In the presence of normal Mg^2+ (1.5 mM), stimulation of Schaffer collaterals induces single population spike or EPSP in the CA1 region of the hippocampus. […] Perfusion with Mg^2+-free aCSF for about 30 min evoked synchronous burst firing with the same stimulation intensity. In about, 30% of the slices, spontaneous clustered bursts developed in the absence of electrical stimulation. Bath perfusion of amiloride or PcTX1 for 10 min reduced the amplitude and frequency of evoked bursting activity (FIGS. 5A and 5B). Amiloride (100 μM) reduced the amplitude of the first and the second population spikes (from 1.2±0.2 mV to 0.5±0.2 mV and 0.6±0.03 mV to 0.2±0.05 mV, respectively (n=9: p<0.01, FIGS. 5A and 5B), and the number of population spikes (from 4.7±0.6 to 3.3±0.8, n=9, p<0.05)). Similarly, PcTX1 (200 ng/mL) attenuated the amplitude of the population spike (from 2.1±0.3 to 1.6±0.2 mV, n=9, p<0.05) and the number of spikes (from 4.2±0.6 to 3.0±0.6, p<0.05).
Preparation of hippocampal slices and brain slice recording. Hippocampal slices were obtained from 8- to 10-week-old mice. The protocol for brain-slice recording was approved by the Institutional Animal Care and Use Committee of Legacy Research. Animals were deeply anesthetized with isoflurane and decapitated. Brains were quickly removed and placed in ice-cold solution that contained: 125 mM sucrose, 2.5 mM KCl, 26 mM NaHCO3, 1.25 mM NaHPO4, 6.0 mM […], 0.5 mM CaCl2, and 10 mM glucose, and was saturated with 95% O2 and 5% CO2 (pH 7.4). Hippocamnpal slices were cut in 400 μm thickness in transverse plane with a vibratome (Leica VT 1000S) and placed in a slice holding chamber (BSC-PC Prechamber, Warner Instrument) and incubated in normal artificial cerebral spinal fluid (aCSF) that contained: 125 mM NaCl, 2.5 mM KCl, 26 mM NaHCO3, 1.25 mM […], 1.0 mM MgSO4, 2.0 mM CaCl2, and 10 mM glucose, and was saturated with 95% O2 and 5% CO2 (pH 7.4).
Following ˜60 min of incubation at room temperature, individual slices were transferred to a submerged slice chamber with a volume of 0.5 mL (Warner Instruments, Hamden, Conn.) and perfused with oxygenated aCSF (35° C.) at a rate of 3-4 mL/min. Recording electrodes were pulled from borosilicate glass and filled with aCSF. The population spike and the field excitatory postsynaptic potentials (fEPSP) were recorded in stratum pyramidale and striatum radiatum of hippocampal CA1 region, by stimulating Schaffer Collaterals.
For low Mg^2+ induced epileptic burst activity, Mg^2+-free aCSF was perfused to the slices for ˜30 min. For stimulus-train induced bursting discharges (STIB), each stimulation train consisted of 120 pulses at 60 Hz and each pulse was 100 μsec in duration (Stasheff et al., 1985). A 10-minute interval of non-stimulation was provided between successive trains of high frequency stimulation. Stimulation electrodes were located in striatum radiatum between CA1 and CA3 region. The population spikes were recorded from striatum pyramidale of the CA3 region.
Pharmacological and electrical bursting models. To induce epileptic burst discharges, Mg^2+-free aCSF was applied. Mg^2+-free aCSF was obtained by simply omitting MgSO4 from aCSF.

[2] = tested on: cultured mouse hippocampal neurons; test: Cell culture model of epilepsy: kynurenic acid (Kyn) withdrawal-induced seizure-like activity, current-clamp recording; type: cell-based
From the text: We hypothesized that ASICs are involved in seizure propagation. Using the Furshpan and Potter cell culture model of epilepsy (Meller et al., 2003; Furshpan et al., 1998), we tested ASIC blockade in mouse hippocampal neurons cultured with the glutamate antagonist kynurenate (Kyn) and elevated Mg^2+. In the presence of Kyn, the majority of hippocampal neurons remained quiescent. […] Without amiloride, Kyn withdrawal-induced sustained depolarization of 39.5±2.1 mV and paroxysmal bursts at 4.0±0.5 Hz. With 30 μM amiloride, membrane depolarization was reduced to 28.6±2.7 mV (p<0.05, n=5) and burst activity reduced to 2.5±0.4 Hz (p<0.01, FIGS. 3C and 3D). Similarly, application of PcTX1 reduced membrane depolarization from 30.2±3.7 mV to 10.7±1.8 mV (n=8, p<0.01) and burst activity from 5.5±0.6 Hz to 1.2±0.3 Hz (n=9, p<0.01, FIGS. 3C, 3D, and 4).
Cell culture model of epilepsy. Long term cell culture model of epilepsy was performed as described (Furshpan et al., 1989; Meller et al., 2003). Briefly, hippocampal neurons prepared from 1-2 day-old C57BL/6 mice cultured in Neurobasal-A/B27 media supplemented with 10 mM Kyn and 5 mM MgCl2. Culture media was replenished with fresh kynurenic acid/Mg^2+ every 3 days. Cells were used for patch-clamp recording after 3 to 4 weeks. Following the formation of a tight seal in a whole-cell configuration, neurons were current-clamped at ˜−60 mV. In the presence of Kyn, the majority of hippocampal neurons remained quiescent. […] The spontaneous electrical behavior of the culture has many of the characteristics of seizure activity in an intact cortex. This system allows seizure-related cellular mechanisms to be studied in long-term cell culture.
Patch clamp techniques. Whole-cell voltage-clamp and current-clamp recordings were performed as described in our previous studies (Xiong et al., 2004). Patch electrodes were constructed from thin-welled borosilicate glass (1.5 mm diameter, WPI, Sarasota, Fla., USA) on a two-stage puller (PP83 Narishige, Tokyo). The resistances of patch electrodes were 1.5-3 MΩ when filled with the intracellular solution (see below). Whole-cell currents were recorded using Axopatch 200B amplifiers with pCLAMP software (Axon Instruments, CA, USA). Data were filtered at 2 kHz and digitized at 5 kHz using Digidata 1322 (Axon Instruments). During each experiment, a voltage step of −10 mV was applied periodically to monitor the cell capacitance and the access resistance. A multi-barrel perfusion system (SF-77, Warner Instrument Co., Conn., USA) was employed to achieve a rapid exchange of solutions. All experiments were performed at room temperature (22-24° C.).

[3] = 100 μM amiloride, bath perfusion 10 min, evoked
[4] = 30 μM amiloride, perfused 2 min before and during Kyn withdrawal
[5] = PcTX1 200 ng/mL, bath perfusion 10 min, evoked
[6] = PcTX1 (venom 200 ng/mL total protein per FIG. 4 legend)

Molecule	amplitude of the first population spike [1, 3]	amplitude of the second population spike [1, 3]	number of population spikes [1, 3]	frequency of spontaneous clustered bursts [1]	frequency of spontaneous clustered bursts relative to control [1]	Kyn withdrawal-induced paroxysmal burst activity (frequency) [2, 4]	Kyn withdrawal-induced sustained membrane depolarization [2, 4]	amplitude of the population spike [1, 5]	number of spikes [1, 5]	Kyn withdrawal-induced burst activity (frequency) [2, 6]	Kyn withdrawal-induced membrane depolarization [2, 6]
NC(N)=NC(=O)c1nc(Cl)c(N)nc1N [amiloride, 3,5-diamino-6-chloro-N(diaminomethylidene)pyrazine-2-carboxamide]	0.5±0.2 mV	0.2±0.05 mV	3.3±0.8	26.0 ± 5.8 min⁻¹	0.84±0.05 of control	2.5±0.4 Hz	28.6±2.7 mV	–	–	–	–
Psalmotoxin 1 [PcTX1]	–	–	–	59.9 ± 11.3 min⁻¹	0.68±0.07 of control	–	–	1.6±0.2 mV	3.0±0.6	1.2±0.3 Hz	10.7±1.8 mV
